pIC50: −log10 of the molar value.
What was measured:
[1] = target: T1, RBL-1 cell cyclooxygenase (Rattus norvegicus, UniProt Q63921); experiment: RBL-1 cell cyclooxygenase, cell homogenate supernatant (Procedure II); format: biochemical; conditions: RBL-1 homogenate, 3 μM; read-out: PROC. II % INHIBITION CO
T1 construct: the supernatant was saved as the source of enzymes; endogenous in cells; host or cells: RBL-1 rat basophilic leukemia cells, homogenate supernatant
T1 sequence (Q63921 27-602): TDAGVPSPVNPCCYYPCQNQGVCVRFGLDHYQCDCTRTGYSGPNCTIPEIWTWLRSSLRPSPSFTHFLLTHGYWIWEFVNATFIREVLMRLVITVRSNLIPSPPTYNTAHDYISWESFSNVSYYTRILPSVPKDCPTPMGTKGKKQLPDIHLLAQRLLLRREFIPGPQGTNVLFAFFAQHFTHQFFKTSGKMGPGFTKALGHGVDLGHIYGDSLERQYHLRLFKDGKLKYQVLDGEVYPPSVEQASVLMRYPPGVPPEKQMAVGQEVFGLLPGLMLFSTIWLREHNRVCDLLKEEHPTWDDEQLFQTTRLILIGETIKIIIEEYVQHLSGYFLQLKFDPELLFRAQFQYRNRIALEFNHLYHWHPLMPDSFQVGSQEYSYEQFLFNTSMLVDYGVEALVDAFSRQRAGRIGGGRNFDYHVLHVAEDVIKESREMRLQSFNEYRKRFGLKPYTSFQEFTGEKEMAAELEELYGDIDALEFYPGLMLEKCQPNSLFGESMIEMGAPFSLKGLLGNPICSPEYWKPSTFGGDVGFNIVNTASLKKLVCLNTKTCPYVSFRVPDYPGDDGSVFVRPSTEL
Description: (§1) RBL-1 cell 5-lipoxygenase and cyclooxygenase
(§2) Rat basophilic leukemia cells (RBL-1; 5×10^7 viable cells/mL) were disrupted by homogenization on ice (four 20 sec bursts) with a Brinkman polytron. Complete cell breakage was verified microscopically. The homogenate was then centrifuged at 10,000×g for 48 minutes at 4° C. The pellet was discarded and the supernatant was saved as the source of enzymes. The supernatant was pre-incubated for five minutes at 37° C. in the presence of 2 mM of CaCl2 and compound or vehicle (1% DMSO). The conversion of AA into 5-LO products was initiated by adding 10 μL (50 μCi) of 1-^14 C-AA to each tube and incubated at 37° C. for 20 minutes. The reaction was stopped by adjusting the pH of each sample to 3 to 3.5 with 2M formic acid. Samples were extracted with three volumes of chloroform to isolate the products of 5-LO formed during the reaction. Fractions were dried under nitrogen, then resuspended in 40 μL of chloroform and spotted onto silica gel HL plates. The plates were developed in A-9 solvent. The dried plates were analyzed using a Bioscan Imaging TLC scanner to determine the percentage of radiolabelled AA converted to 5-HETE in each sample.

[2] = target: T2, 5-LO in intact RBL-1 cells (Rattus norvegicus, UniProt P12527); experiment: 5-LO inhibition in intact RBL-1 cells (Procedure III); format: cell-based; conditions: read-out: PROC. III IC50 5-LO
T2 construct: endogenous in cells; host or cells: intact RBL-1 cells
T2 sequence (P12527 1-673): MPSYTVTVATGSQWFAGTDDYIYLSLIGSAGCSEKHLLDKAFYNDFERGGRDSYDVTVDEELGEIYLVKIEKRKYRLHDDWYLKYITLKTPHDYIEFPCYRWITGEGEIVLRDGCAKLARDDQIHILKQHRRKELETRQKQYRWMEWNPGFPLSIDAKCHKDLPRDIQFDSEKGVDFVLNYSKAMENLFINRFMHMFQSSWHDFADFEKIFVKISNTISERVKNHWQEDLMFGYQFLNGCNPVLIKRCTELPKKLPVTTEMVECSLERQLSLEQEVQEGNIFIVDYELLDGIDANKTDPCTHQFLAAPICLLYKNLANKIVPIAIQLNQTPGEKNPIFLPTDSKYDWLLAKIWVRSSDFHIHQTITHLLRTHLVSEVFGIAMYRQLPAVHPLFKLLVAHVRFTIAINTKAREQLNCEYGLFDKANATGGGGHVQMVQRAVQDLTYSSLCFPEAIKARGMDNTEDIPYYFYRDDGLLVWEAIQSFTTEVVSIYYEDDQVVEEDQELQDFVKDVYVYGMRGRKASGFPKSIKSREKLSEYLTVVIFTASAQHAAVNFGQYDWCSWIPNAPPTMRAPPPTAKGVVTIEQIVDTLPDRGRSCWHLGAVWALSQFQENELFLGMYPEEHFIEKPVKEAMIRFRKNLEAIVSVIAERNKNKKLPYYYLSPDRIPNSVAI
Description: (§3) The ability to inhibit 5-LO and CO in intact RBL-1 cells was also evaluated. RBL-1 cells were maintained in culture in minimal essential medium (Bio*Whittaker, Walkersville, MD), containing 12.5% fetal calf serum, 10 mg/mL streptomycin, 10 I.U./mL penicillin G, […] gentamycin and 2 mM L-glutamine (Bio*Whittaker, Walkersville, MD). Cells were collected by centrifugation, washed once in HBSS, and resuspended at a concentration of 1×10^5 cells/mL. Cells were incubated in the presence of vehicle or drug then centrifuged at 800×g for 10 minutes at 4° C. The supernatant was removed by aspiration and the cells were resuspended in 0.5 mL of HBSS. The reaction was started by the addition of 20 μg/mL of calcium ionophore A-23187 (mixed calcium and magnesium salts, Calbiochem, La Jolla CA) and allowed to proceed for 15 minutes, then stopped by plunging the tubes into a slush ice bath. The conversion of AA to 5-LO products was initiated by the addition of 10 μL (50 uCi) of 1-^14 C-AA. Products were isolated by acidification and extraction, followed by thin layer chromatography analysis as described above. Radioactive areas corresponding to authentic 5-LO and CO products were quantitated by the Bioscan 2000 Imaging System.

CO in intact RBL-1 cells = experiment: CO inhibition in intact RBL-1 cells (Procedure III); format: cell-based, rat; conditions: superscript = number of experiments, read-out: PROC. III IC50 CO
Description: as §3

[3] = target: T3, RBL-1 cell 5-lipoxygenase (Rattus norvegicus, UniProt P12527); experiment: RBL-1 cell 5-lipoxygenase, cell homogenate supernatant (Procedure II); format: biochemical; conditions: RBL-1 homogenate, 3 μM; read-out: PROC. II % INHIBITION 5-LO
T3 construct: the supernatant was saved as the source of enzymes; endogenous in cells; host or cells: RBL-1 rat basophilic leukemia cells, homogenate supernatant
T3 sequence (P12527 1-673): T2 sequence (P12527 1-673)
Description: as §1, §2

[4] = target: T4, Sheep seminal vesicle cyclooxygenase (Ovis aries, UniProt P05979); experiment: Sheep seminal vesicle cyclooxygenase (Procedure I); format: biochemical; conditions: read-out: PROC. I % INHIB CO
T4 construct: Sheep seminal vesicle (SSV) cyclooxygenase (95% pure); purchased Biomol (Plymouth Meeting, Pa.); host or cells: sheep seminal vesicle
T4 sequence (P05979 25-600): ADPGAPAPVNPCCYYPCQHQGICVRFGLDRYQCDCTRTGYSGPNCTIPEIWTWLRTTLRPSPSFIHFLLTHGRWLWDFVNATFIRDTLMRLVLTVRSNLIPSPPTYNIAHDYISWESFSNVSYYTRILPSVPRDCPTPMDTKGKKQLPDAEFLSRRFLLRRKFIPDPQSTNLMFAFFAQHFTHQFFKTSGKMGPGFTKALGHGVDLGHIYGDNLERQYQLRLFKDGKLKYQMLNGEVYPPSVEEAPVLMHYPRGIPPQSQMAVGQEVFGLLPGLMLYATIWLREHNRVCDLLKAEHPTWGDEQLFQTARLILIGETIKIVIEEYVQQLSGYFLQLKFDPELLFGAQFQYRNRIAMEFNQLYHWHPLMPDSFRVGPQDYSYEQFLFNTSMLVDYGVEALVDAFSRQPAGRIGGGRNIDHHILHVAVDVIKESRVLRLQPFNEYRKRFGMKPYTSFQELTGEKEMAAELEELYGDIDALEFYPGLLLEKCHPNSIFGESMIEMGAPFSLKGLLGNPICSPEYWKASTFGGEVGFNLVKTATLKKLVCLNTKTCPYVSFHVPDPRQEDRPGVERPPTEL
Description: Sheep seminal vesicle cyclooxygenase Sheep seminal vesicle (SSV) cyclooxygenase (95% pure, prostaglandin endoperoxide synthase, EC 1.14.99.1 specific activity 24 units/mg protein) obtained as a lyophilized powder from Biomol (Plymouth Meeting, Pa.) was reconstituted at a concentration of 59 mg/mL in Hanks' Balanced Salt Solution (HBSS). The enzyme was divided into 200 μL aliquots, snap frozen with liquid N2, and stored at -70° C. unitl immediately prior to use. Measurements of CO activity were carried out in polypropylene tubes containing 495 μL of HBSS to which was added 5 μL of inhibitor or dimethylsulfoxide (DMSO; vehicle control) and 6 μL of SSV CO solution. The tubes were mixed on a vortex shaker, preincubated for 5 min at 37° C. prior to the initiation of the reaction. The reaction was started by the addition of [^14 C]-arachidonic acid (1-^14 C-AA, Amersham, Arlington Heights, Il) in 10 μL of methanol. Tubes were again vortexed and incubated in a water bath for 20 minutes after which the tubes were removed and the reaction stopped by acidification with the addition of 1 mL 2M formic acid. Lipophilic products were extracted with 3 mL chloroform and concentrated to dryness under N2. Each pellet was reconstituted with 40 μL of chloroform and spotted on a Whatman Silicon thin-layer chromatography plate and developed in a chromatography tank containing A-9 solvent (11:5:2:1 V:V:V:V, ethyl acetate:trimethylpentane:acetic acid:double distilled-H2 O). Radioactive cyclooxygenase products (prostaglandin D2, prostaglandin E2, etc.) were measured using a Bioscan System 200 Imaging Scanner. Inhibition of enzyme activity was calculated by comparing the areas under the curve produced in the presence or absence of test compound.

Row | SMILES | inhibition at 3 µM [1] [%] | pIC50 [2] | pIC50 (CO in intact RBL-1 cells) | inhibition at 3 µM [3] [%] | inhibition at 3 µM [4] [%]
1 | COc1ccc(-n2nc(CSC(=S)N(C)O)cc2-c2ccc(Cl)cc2)cc1 [1-A, 5-(4-chlorophenyl)-1-(4-methoxyphenyl)-3-pyrazolylmethyl-N-hydroxy-N-methyl dithiocarbamate] | 100 | 5.60 | 6.64 | 85 | –
2 | COc1ccc(-n2nc(CSC(=S)N(C)O)cc2-c2ccc(C)cc2)cc1 [1-F] | 100 | 5.62 | 7.22 | 83 | –
3 | COc1ccc(-n2nc(CSC(=S)N(O)C(C)C)c(Cl)c2-c2ccc(C)cc2)cc1 [1-I] | 0 | – | – | 82 | 0
4 | COc1ccc(-n2nc(CSC(=S)N(C)O)c(Br)c2-c2ccc(C)cc2)cc1 [1-J] | 52 | – | – | 83 | 36
5 | COc1ccc(-n2nc(CSC(=S)N(O)C(C)C)c(Br)c2-c2ccc(C)cc2)cc1 [1-K] | 0 | – | – | 87 | 0
